Laboratory results: patent US20220257775A1 (GLYCOMIMETICS, INC., priority 2019, published 2022)
“Also recorded” adds a separate entry of the source.

Tests used:
[1] = molecular target: T1, recombinant human E-selectin/CD63E Fc Chimera (Homo sapiens, UniProt P16581); assay: E-Selectin Activity - Analysis by SPR; type: binding; conditions: Biacore X100, E-selectin captured on anti-human IgG (Fc) chip
T1 construct: Fc (human IgG Fc fusion partner); purchased R & D systems
Method: Surface Plasmon Resonance (SPR) measurements were performed on a Biacore X100 instrument (GE Healthcare). A CM5 sensor chip (GE Healthcare) was used for the interaction between E-selectin and GMI compound. Anti-human IgG (Fc) antibody (GE Healthcare) was immobilized onto the chip by amine coupling according to the manufacturer's instructions. In brief, after a 7-min injection (flow rate of 5 μl/min) of 1:1 mixture of N-ethyl-N′-(3-dimethylaminopropyl) carbodiimide hydrochloride and N-hydroxysuccinimide, anti-human IgG (Fc) antibody (25 μg/ml in 10 mM sodium acetate buffer, pH 5.0) was injected using a 6-min injection at 5 μl/min. Remaining activated groups were blocked by injecting 1 M ethanolamine/HCl, pH 8.5. The recombinant human E-selectin/CD63E Fc Chimera (50 μg/ml) (R & D systems) was injected into the experimental cell until 6000-7000 RU was captured onto the antibody surface. No recombinant human E-selectin/CD63E was injected into the control cell. Increasing concentrations of GMI compound samples were injected at 30 μl/min into both flow cells and all sensorgrams were recorded against the control. Regeneration of the anti-human IgG (Fc) surface was achieved by injecting 3M magnesium chloride, followed by 50 mM sodium hydroxide. Data were analyzed using Biacore X100 evaluation/BIA evaluation 4.1.1 software (GE Healthcare) and Graphad prism 6 software.

[2] = system: TNFα-treated nude mice infused with human sickle RBCs; assay: Sickle cell vaso-occlusion, intravital microscopy and adhesion in nude mouse model; type: in vivo, Nude (nu−/nu−) mice
Method: In vivo treatment: Mice were divided into 3 groups. All mice were first injected I.P. with 500 ng TNFα to induce inflammation, activate the endothelium, and allow adhesion of murine leukocytes. After 2 hours, and once the endothelium is activated and murine leukocytes have already adhered, mice were infused with 200 μl of DIL (rhodamine)-labeled human sickle RBCs at 50% hematocrit (less than 10% murine blood volume assuming that blood volume for a 20 g weight mouse is 1.5 ml). We injected I.V. the three animal groups with the first dose of either Compound 45 at 20 μg/kg or 40 μg/kg, or saline (10 mL/kg) as vehicle immediately after infusion of human RBCs. The second dose was given 30 minutes later.
Window chamber surgery: Surgery was performed before TNFα administration. General anesthesia was achieved by exposing nude mice to isoflurane. A double-sided titanium frame window chamber was surgically implanted into the dorsal skin fold under sterile conditions using a laminar flow hood. Surgery involved carefully removing the epidermal and dermal layers of one side of a dorsal skin fold, exposing the blood vessels of the subcutaneous tissue adjacent to the striated muscles of the opposing skin fold, and then securing the two sides of the chamber to the skin using stainless steel screws and sutures. A glass window was placed in the chamber to cover the exposed tissue and secured with a snap ring.
Animal treatments, and fluorescence intravital microscopy: Anesthetized nude mice were first injected with 500 ng TNFα. After two hours, mice were infused with 200 μl DIL (rhodamine)-labeled human sickle RBCs at 50% hematocrit DIL through the dorsal tail vein.
Immediately after human RBC injection, nude mice were then injected I.V. with the first dose of either Compound 45 at 20 μg/kg (n=4) or 40 μg/kg (n=3), or saline (10 mL/kg) as vehicle (n=5). Videos were recorded for 30 minutes at different locations within the dorsal skin-fold window chamber to accurately determine the effects of Compound 45 on human sickle cell adhesion to the vascular endothelium and adherent murine leukocytes, and vaso-occlusion in the nude mice. Thirty minutes later, the second dose of either Compound 45 at 20 μg/kg (n=4) or 40 μg/kg (n=3), or vehicle (n=5) was injected I.V., and intravital microscopy measurements of blood cell flow dynamics in post-capillary venules and arterioles were resumed for another 30 minutes on anesthetized nude mice. Videos were again recorded at different locations within the dorsal skin-fold window chamber to accurately determine the effects of the second dose of Compound 45 on blood cell adhesion to the vascular endothelium, and vaso-occlusion. Videos were produced using 10× and 20× magnifications.
Cell adhesion was quantified on still images by measuring the fluorescence intensity [fluorescence unit (FU)] of adherent fluorescence-labeled human sickle cells using ImageJ software downloaded from the NIH website. Blood flow was also determined by counting the number of vessels with normal blood flow, slow blood flow, and no blood flow by frame-by-frame analysis of video replay. The values were averaged among groups of animals (n=5 for vehicle, n=4 for 40 μg/kg total Compound 45, and n=3 for 80 μg/kg total Compound 45) for non-blinded statistical analysis.
(§1) Method of Analysis: Human sickle RBC adhesion is presented as FU, blood flow as % normal blood flow, % slow blood flow and % no blood flow (or occluded vessels), and circulating human sickle RBCs as number of circulating sickle RBCs.

[3] = system: TNFα-treated nude mice infused with human sickle RBCs; assay: Flow cytometry analysis of circulating human sickle RBCs in nude mice; type: in vivo, Nude (nu−/nu−) mice
Method: Flow cytometry analysis of circulating human sickle RBCs: Following intravital microscopy, blood samples were collected from nude mice treated with vehicle (n=3), 40 μg/kg total Compound 45 (n=3), and 80 μg/kg total Compound 45 (n=2), through cardiac puncture into EDTA tubes to determine the number of circulating human sickle RBCs by flow cytometry.
as §1

[4] = system: TNFα-treated HbSS-Townes mice; assay: Sickle cell vaso-occlusion, intravital microscopy and adhesion in Townes mouse model; type: in vivo
Method: In vivo treatment: Townes mice were divided into 3 groups. All mice were first injected I.V. with PE-anti-mouse TER-119 antibody (10 μg/g BW) to label RBCs. Thirty minutes later, animals are injected with 500 ng TNFα I.P. to induce vaso-occlusion. After 90 minutes, and after onset of vaso-occlusion, sickle mice were treated I.V. with the first dose of either Compound 45 at 20 μg/kg or 40 μg/kg, or saline (10 mL/kg) as vehicle. The second dose was given 30 minutes later.
Window chamber surgery: For Townes mice experiments, surgery is carried out under sterile conditions with aseptic technique. Since these mice do have hair, it is necessary to shave and use hair removal cream on the back of the anesthetized mouse prior to cleaning the back of the animals, and performing surgery. Experimental studies are performed immediately after surgery, because in our experience, window chambers are not usable a few days after surgery. The skin is very dry, and blood cells cannot be visualized under the microscopy. In addition, sickle mice have been reported to have a mild inflammatory response to the dorsal skin-fold window chamber implantation, evidenced by elevated levels of serum amyloid P component (SAP) 3 days after surgery.
Intravital microscopy: Anesthetized animals with window chambers were placed on the stage of an Axoplan microscope (Carl Zeiss, Thornwood, N.Y.) and temperature maintained at 37° C. using a thermostatically controlled heating pad. […] Microcirculatory events and cell adhesion were simultaneously recorded using a computer connected to a digital video camera C2400 (Hamamatsu Photonics K.K., Japan). Visible venules were examined for each set of conditions. Arterioles were distinguished from venules based on: 1) observation of divergent flow as opposed to convergent flow; 2) birefringent appearance of vessel walls using transillumination, which is characteristic of arteriolar vascular smooth muscle; and 3) relatively straight vessel trajectory without evidence of tortuosity.
Data Analysis and Statistics were conducted as described above for the nude mouse model.

[5] = after second dose of 20 μg/kg I.V.
[6] = after the first dose of 40 μg/kg I.V.
[7] = after two doses of 40 μg/kg I.V.

T1 sequence (P16581 with tags, fused parts or gaps limits assumed): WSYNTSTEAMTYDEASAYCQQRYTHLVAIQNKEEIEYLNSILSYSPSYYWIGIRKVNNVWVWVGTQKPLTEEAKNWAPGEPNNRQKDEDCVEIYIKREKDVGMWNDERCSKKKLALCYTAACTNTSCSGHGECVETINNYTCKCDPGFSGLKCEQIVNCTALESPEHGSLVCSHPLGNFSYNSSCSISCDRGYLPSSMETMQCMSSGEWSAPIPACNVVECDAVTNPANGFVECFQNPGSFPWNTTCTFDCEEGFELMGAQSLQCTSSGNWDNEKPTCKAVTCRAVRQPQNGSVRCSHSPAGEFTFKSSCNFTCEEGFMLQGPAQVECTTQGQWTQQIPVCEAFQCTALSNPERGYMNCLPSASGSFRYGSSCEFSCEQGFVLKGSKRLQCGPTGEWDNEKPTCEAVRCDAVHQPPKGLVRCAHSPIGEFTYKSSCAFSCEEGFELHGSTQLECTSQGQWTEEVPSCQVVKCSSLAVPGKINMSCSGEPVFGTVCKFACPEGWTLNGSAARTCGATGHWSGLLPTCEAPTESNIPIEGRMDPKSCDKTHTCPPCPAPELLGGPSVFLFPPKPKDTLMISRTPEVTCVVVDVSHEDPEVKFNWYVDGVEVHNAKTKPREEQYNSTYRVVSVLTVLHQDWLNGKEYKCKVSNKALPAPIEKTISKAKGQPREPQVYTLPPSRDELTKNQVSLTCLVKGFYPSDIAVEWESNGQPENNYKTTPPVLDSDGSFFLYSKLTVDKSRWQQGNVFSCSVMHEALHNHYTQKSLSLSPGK

CCC1CC(C(=O)NCCNC(=O)c2cn(CCOCCOCCOCCn3cc(C(=O)NCCNC(=O)C4CC(CC)C(OC5OC(C)C(O)C(O)C5O)C(OC5OC(CO)C(O)C(OC(CC6CCCCC6)C(=O)N6CCC6)C5NC(C)=O)C4)nn3)nn2)CC(OC2OC(CO)C(O)C(OC(CC3CCCCC3)C(=O)N3CCC3)C2NC(C)=O)C1OC1OC(C)C(O)C(O)C1O (centres unmarked) [Compound 29]
Kd [1]: 3.2 nM

CC[C@H]1C[C@@H](C(=O)NCCNC(=O)Cn2cc(C(=O)NCCNC(=O)[C@@H]3C[C@H](CC)[C@@H](O[C@@H]4O[C@@H](C)[C@@H](O)[C@@H](O)[C@@H]4O)[C@H](O[C@@H]4O[C@H](CO)[C@H](O)[C@H](O[C@@H](CC5CCCCC5)C(=O)O)[C@H]4NC(C)=O)C3)nn2)C[C@@H](O[C@@H]2O[C@H](CO)[C@H](O)[C@H](O[C@@H](CC3CCCCC3)C(=O)O)[C@H]2NC(C)=O)[C@@H]1O[C@@H]1O[C@@H](C)[C@@H](O)[C@@H](O)[C@@H]1O [Compound 31]
Kd [1]: 3.3 nM

CC[C@H]1C[C@@H](C(=O)NCCNC(=O)NCCNC(=O)[C@@H]2C[C@H](CC)[C@@H](O[C@@H]3O[C@@H](C)[C@@H](O)[C@@H](O)[C@@H]3O)[C@H](O[C@@H]3O[C@H](CO)[C@H](O)[C@H](O[C@@H](CC4CCCCC4)C(=O)O)[C@H]3NC(C)=O)C2)C[C@@H](O[C@@H]2O[C@H](CO)[C@H](O)[C@H](O[C@@H](CC3CCCCC3)C(=O)O)[C@H]2NC(C)=O)[C@@H]1O[C@@H]1O[C@@H](C)[C@@H](O)[C@@H](O)[C@@H]1O [Compound 32]
Kd [1]: 8.8 nM

CCC1CC(C(=O)NCCNC(=O)c2cn(CCOCCC(=O)NCCCC[C@H](NC(=O)CCOCCn3cc(C(=O)NCCNC(=O)C4CC(CC)[C@@H](O[C@@H]5OC(C)[C@@H](O)[C@H](O)C5O)[C@H](O[C@@H]5O[C@@H](CO)[C@H](O)C(O[C@@H](CC6CCCCC6)C(=O)O)C5NC(C)=O)C4)nn3)C(=O)OCc3ccccc3)nn2)C[C@@H](O[C@@H]2O[C@@H](CO)[C@H](O)C(O[C@@H](CC3CCCCC3)C(=O)O)C2NC(C)=O)[C@@H]1O[C@@H]1OC(C)[C@@H](O)[C@H](O)C1O (some centres unmarked) [Compound 37]
Kd [1]: 3.9 nM

CCC1CC(C(=O)NCCNC(=O)c2cn(CCOCCC(=O)NCCCC[C@H](NC(=O)CCOCCn3cc(C(=O)NCCNC(=O)C4CC(CC)[C@@H](O[C@@H]5OC(C)[C@@H](O)[C@H](O)C5O)[C@H](O[C@@H]5O[C@@H](CO)[C@H](O)C(O[C@@H](CC6CCCCC6)C(=O)O)C5NC(C)=O)C4)nn3)C(=O)O)nn2)C[C@@H](O[C@@H]2O[C@@H](CO)[C@H](O)C(O[C@@H](CC3CCCCC3)C(=O)O)C2NC(C)=O)[C@@H]1O[C@@H]1OC(C)[C@@H](O)[C@H](O)C1O (some centres unmarked) [Compound 38]
Kd [1]: 6.4 nM

CCC1CC(C(=O)NCCNC(=O)CCC(=O)NCCN(CCNC(=O)CCC(=O)NCCNC(=O)C2CC(CC)C(OC3OC(C)C(O)C(O)C3O)C(OC3OC(CO)C(O)C(OC(CC4CCCCC4)C(=O)O)C3NC(C)=O)C2)CCNC(=O)CCC(=O)NCCNC(=O)C2CC(CC)C(OC3OC(C)C(O)C(O)C3O)C(OC3OC(CO)C(O)C(OC(CC4CCCCC4)C(=O)O)C3NC(C)=O)C2)CC(OC2OC(CO)C(O)C(OC(CC3CCCCC3)C(=O)O)C2NC(C)=O)C1OC1OC(C)C(O)C(O)C1O (centres unmarked) [Compound 42]
Kd [1]: 1.5 nM

CC[C@H]1C[C@@H](C(=O)NCCNC(=O)NCCNC(=O)[C@@H]2C[C@H](CC)[C@@H](O[C@@H]3O[C@@H](C)[C@@H](O)[C@@H](O)[C@@H]3O)[C@H](O[C@@H]3O[C@H](CO)[C@H](O)[C@H](O[C@@H](CC4CCCCC4)C(=O)N4CCC4)[C@H]3NC(C)=O)C2)C[C@@H](O[C@@H]2O[C@H](CO)[C@H](O)[C@H](O[C@@H](CC3CCCCC3)C(=O)N3CCC3)[C@H]2NC(C)=O)[C@@H]1O[C@@H]1O[C@@H](C)[C@@H](O)[C@@H](O)[C@@H]1O [Compound 45]
Kd [1]: 2.1 nM | percentage of the total occluded vessel segments [2, 5]: 2% | total venules with slow blood flow [2, 5]: 16% | human SSRBC adhesion compared to vehicle ([2]; after second dose of 20 μg/kg I.V. (40 μg/kg total), 30 min interval): significantly diminished | percentage of obstructed total vessels [2, 6]: 2% | vessels with slow blood flow [2, 6]: 12% | percentage of obstructed total vessels [2, 7]: 4% | vessels with slow blood flow [2, 7]: 8% | blood flow in inflamed vessels ([2]; dose not given): improves blood flow | human SSRBC adhesion after the inflammatory trigger of vaso-occlusion ([2]; dose not given): reduces human SSRBC adhesion | human SSRBC adhesion compared to vehicle ([2]; one dose of 20 μg/kg I.V.): failed to reduce SSRBC adhesion | human SSRBC adhesion ([2]; one dose of 40 μg/kg I.V.): marked anti-SSRBC adhesive activity | human SSRBC adhesion ([2]; two doses of 40 μg/kg I.V. (80 μg/kg total), 30 min interval): marked anti-SSRBC adhesive activity; also recorded: effective in reducing cell adhesion in venules and vaso-occlusion and restoring blood flow | number of circulating human SSRBCs compared to vehicle ([3]; two doses of 20 μg/kg I.V. at 30 min interval): increased significantly | number of circulating human SSRBCs compared to vehicle ([3]; two doses of 40 μg/kg I.V. at 30 min interval): increased significantly | SSRBC adhesion after the inflammatory trigger of vaso-occlusion ([4]; dose not given): reduces SSRBC adhesion | blood flow in inflamed vessels ([4]; dose not given): improves blood flow | adhesion of the sickle cells ([4]; two 20 μg/kg doses I.V.): significantly diminished | reduction of the percentage of the total occluded vessel segments ([4]; two 20 μg/kg doses or two 40 μg/kg doses I.V.): 80-90% | adhesion of the sickle cells ([4]; two 40 μg/kg doses I.V. (80 μg/kg total)): significantly diminished; also recorded: effective in reducing sickle RBCs adhesion in venules and vaso-occlusion and restoring blood flow
